Test results published in patent US20060062758A1, “Tight junction modulator peptide PN159 for enhanced mucosal delivery of therapeutic compounds” (Nastech Pharmaceutical Comapny Inc., priority 2004, published 2006).

Tests used:
[1] = system: EpiAirway™ Cell Membrane (mucosal epithelial cell layer); assay: Transepithelial electrical resistance (TER), EpiAirway in vitro epithelial tissue model; format: cell-based
[2] = Intranasal PYY plasma pharmacokinetics in rabbits; format: in vivo, New Zealand White rabbits; settings: for plasma concentration of PYY: average of 4 animals; for Relative AUC last / Relative Cmax / AUCINF, Mean / AUClast, Mean: plasma PYY; for Relative AUC last / Relative Cmax: compared with Group 2 (no enhancer) formulation
Method: 20 male New Zealand White rabbits age 3-6 months and weighing 2.1-3.0 kg were randomly assigned into one of 5 treatment groups with four animals per group. Test animals were dosed at 15 μl/kg and intranasally via pipette. Table 4 below indicates the composition of five different dose groups.
For dosing group 1 (see Table 1) a clinical formulation of PYY including small molecule permeation enhancers was used. The small molecule enhancers in these studies included methyl-βcyclodextrin, phosphatidylcholine didecanoyl (DDPC), and/or EDTA. Dosing group 2 received PYY dissolved in phosphate buffered saline (PBS).
Serial blood samples (about 2 ml each) were collected by direct venipuncture from a marginal ear vein into blood collection tubes containing EDTA as an anticoagulant. Blood samples were collected at 0, 2.5, 5, 10, 15, 30, 45, 60, and 120 minutes post-dosing. After collection of the blood, the tubes were gently rocked several times for anti-coagulation, and then 50 μl aprotinin solution was added. The blood was centrifuged at approximately 1,600×g for 15 minutes at approximately 4° C., and plasma samples were dispensed into duplicate aliquots and stored frozen at approximately −70° C.

[3] = system: EpiAirway™ Cell Membrane (mucosal epithelial cell layer); assay: LDH assay (cytotoxicity), in vitro epithelial tissue model; format: cell-based
Method: Repeated freeze-thaw cycles are to be avoided.
The amount of cell death was assayed by measuring the loss of lactate dehydrogenase (LDH) from the cells using a CytoTox 96 Cytoxicity Assay Kit (Promega Corp., Madison, Wis.). Fifty microliters of sample was loaded into a 96-well assay plates. Fresh, cell-free culture medium was used as a blank. 50 μl of substrate solution was added to each well and the plates incubated for 30 minutes at room temperature in the dark. Following incubation, 50 μl of stop solution was added to each well and the plates read on an optical density plate reader at 490 nm.
The formulation pH was fixed at 4.5.

[4] = Chemical stability of PN159 in solution (stability indicating HPLC); format: physicochemical; settings: pH 9 and/or elevated temperature, e.g., 40 to 50° C.
Method: The chemical stability of the PN159 was determined under therapeutically relevant storage conditions. A stability indicating HPLC method was employed. Solutions (50 mM) were stored at various pH (4.0, 7.3, and 9.0) and temperature (5° C., 25° C., 35° C., 40° C., and 50° C.) conditions. Samples at pH 4 contained 10 mM citrate buffer. Samples at pH 7.3 and 9.0 contained 10 mM phosphate buffer. Representative storage stability data (including the Arrhenius plot) are depicted in FIG. 6. […] For example, at 5° C. and pH 4.0 or pH7.3, there was essentially 100% recovery of PN159 for six month storage. […] The pH range of 4.0 to 7.3 and the temperature range of refrigerated to ambient are most relevant for intranasal formulations.

[5] = intranasal PYY 205 μg/kg in PBS with 25 μM PN159 (Group 3)
[6] = intranasal PYY 205 μg/kg in PBS with 50 μM PN159 (Group 4)
[7] = intranasal PYY 205 μg/kg in PBS with 100 μM PN159 (Group 5)

CC(C)C[C@H](NC(=O)[C@H](C)NC(=O)[C@H](CCCCN)NC(=O)[C@H](CC(C)C)NC(=O)[C@H](C)NC(=O)[C@H](CC(C)C)NC(=O)[C@H](CCCCN)NC(=O)[C@H](CC(C)C)NC(=O)[C@H](C)NC(=O)[C@H](CC(C)C)NC(=O)[C@@H](N)CCCCN)C(=O)N[C@@H](CCCCN)C(=O)N[C@@H](C)C(=O)N[C@@H](C)C(=O)N[C@@H](CC(C)C)C(=O)N[C@@H](CCCCN)C(=O)N[C@@H](CC(C)C)C(=O)N[C@@H](C)C(N)=O [PN159]
TER (in words) ([1]; PN159 25, 50, 100 μM in the presence of 40 mg/ml galantamine lactate, pH 5.0): reduced TER
TER reduction ([1]; PN159 25, 50, 100 μM with 2 mg/ml PTH, pH 4.5): more than 80%
plasma concentration of PYY ([2]; 0 min post-dosing, intranasal PYY 205 μg/kg in PBS with 25 μM PN159): 228.675
plasma concentration of PYY ([2]; 0 min post-dosing, intranasal PYY 205 μg/kg in PBS with 50 μM PN159): 424.4
plasma concentration of PYY ([2]; 0 min post-dosing, intranasal PYY 205 μg/kg in PBS with 100 μM PN159): 294.225
plasma concentration of PYY ([2]; 2.5 min post-dosing, intranasal PYY 205 μg/kg in PBS with 25 μM PN159): 526.375
plasma concentration of PYY ([2]; 2.5 min post-dosing, intranasal PYY 205 μg/kg in PBS with 50 μM PN159): 749.975
plasma concentration of PYY ([2]; 2.5 min post-dosing, intranasal PYY 205 μg/kg in PBS with 100 μM PN159): 1748.225
plasma concentration of PYY ([2]; 5 min post-dosing, intranasal PYY 205 μg/kg in PBS with 25 μM PN159): 1430.15
plasma concentration of PYY ([2]; 5 min post-dosing, intranasal PYY 205 μg/kg in PBS with 50 μM PN159): 1293.4
plasma concentration of PYY ([2]; 5 min post-dosing, intranasal PYY 205 μg/kg in PBS with 100 μM PN159): 3088.2
plasma concentration of PYY ([2]; 10 min post-dosing, intranasal PYY 205 μg/kg in PBS with 25 μM PN159): 6521.7
plasma concentration of PYY ([2]; 10 min post-dosing, intranasal PYY 205 μg/kg in PBS with 50 μM PN159): 12517.2
plasma concentration of PYY ([2]; 10 min post-dosing, intranasal PYY 205 μg/kg in PBS with 100 μM PN159): 14486.6
plasma concentration of PYY ([2]; 15 min post-dosing, intranasal PYY 205 μg/kg in PBS with 25 μM PN159): 12563.075
plasma concentration of PYY ([2]; 15 min post-dosing, intranasal PYY 205 μg/kg in PBS with 50 μM PN159): 34455.3
plasma concentration of PYY ([2]; 15 min post-dosing, intranasal PYY 205 μg/kg in PBS with 100 μM PN159): 20882.725
plasma concentration of PYY ([2]; 30 min post-dosing, intranasal PYY 205 μg/kg in PBS with 25 μM PN159): 15222.6
plasma concentration of PYY ([2]; 30 min post-dosing, intranasal PYY 205 μg/kg in PBS with 50 μM PN159): 35294.375
plasma concentration of PYY ([2]; 30 min post-dosing, intranasal PYY 205 μg/kg in PBS with 100 μM PN159): 25470.475
plasma concentration of PYY ([2]; 45 min post-dosing, intranasal PYY 205 μg/kg in PBS with 25 μM PN159): 9081.125
plasma concentration of PYY ([2]; 45 min post-dosing, intranasal PYY 205 μg/kg in PBS with 50 μM PN159): 21582.225
plasma concentration of PYY ([2]; 45 min post-dosing, intranasal PYY 205 μg/kg in PBS with 100 μM PN159): 16499.55
plasma concentration of PYY ([2]; 60 min post-dosing, intranasal PYY 205 μg/kg in PBS with 25 μM PN159): 4843.15
plasma concentration of PYY ([2]; 60 min post-dosing, intranasal PYY 205 μg/kg in PBS with 50 μM PN159): 9461.925
plasma concentration of PYY ([2]; 60 min post-dosing, intranasal PYY 205 μg/kg in PBS with 100 μM PN159): 10676.625
plasma concentration of PYY ([2]; 120 min post-dosing, intranasal PYY 205 μg/kg in PBS with 25 μM PN159): 1224.2
plasma concentration of PYY ([2]; 120 min post-dosing, intranasal PYY 205 μg/kg in PBS with 50 μM PN159): 2337.775
plasma concentration of PYY ([2]; 120 min post-dosing, intranasal PYY 205 μg/kg in PBS with 100 μM PN159): 1891.275
Relative AUC last ([2]; PN159, 25 μm (Group 3)): 21x
Relative Cmax ([2]; PN159, 25 μm (Group 3)): 30x
Relative AUC last ([2]; PN159, 50 μm (Group 4)): 46x
Relative Cmax ([2]; PN159, 50 μm (Group 4)): 79x
Relative AUC last ([2]; PN159, 100 μm (Group 5)): 38x
Relative Cmax ([2]; PN159, 100 μm (Group 5)): 54x
AUCINF, Mean [2, 5]: 796354.7 pg·min/mL
AUClast, Mean [2, 5]: 748104.1 pg·min/mL
AUCINF, Mean [2, 6]: 1787348 pg·min/mL
AUClast, Mean [2, 6]: 1692499 pg·min/mL
AUCINF, Mean [2, 7]: 1518949 pg·min/mL
AUClast, Mean [2, 7]: 1384241 pg·min/mL
cytotoxicity (LDH) ([3]; Example 2, PTH study, PN159 25-100 μM): no significant cytotoxicity
cytotoxicity as measured by LDH ([3]; in the presence of PN159 and galantamine lactate): low
chemical stability (in words) [4]: rapid deterioration
